Experimental data as given in US20260152480A1, “POLYCYCLIC COMPOUND AND USE THEREOF” (TYK MEDICINES , INC., priority 2022, published 2026).

How the values were obtained:
YAP-TEAD = experiment: Nano luciferase method to detect YAP-TEAD inhibitor activity (293T cells transfected with pGL3B-8×GTiiC-nLuc-CMV-fLuc); type: cell-based; conditions: Homo sapiens, HEK-293T; transfected 293T cells, 48 hours incubation; read-out: Nano Luciferas detection (IC50)
From the text: Experimental Example 2 Nano Luciferase Method to Detect YAP-TEAD Inhibitor Activity
(1) Experimental materials and equipment: 293T cells were purchased from Nanjing Cobioer Biosciences CO., LTD. DMEM medium (high sugar, phenol red free, Bio-Channel), DMSO (dimethyl sulfoxide), Lipo6000™ transfection reagent (Beyotime), pGL3B-8×GTiiC-nLuc-CMV-fLuc plasmid, 0.25% EDTA Tripsin (trypsin solution), 1×PBS (phosphate buffer, PH7.2), 96-well white cell culture plate (PerkinElmer), Fetal Bovine Serum (FBS), 10,000 U/mL penicillin-G/streptomycin, High-speed cryo-centrifuge (EPPENDORF 5810R), 37° C. CO^2 incubator, Vi-Cell® cell counter, Envision microplate reader (PerkinElmer).
Resuscitated 293T cells were inoculated into 10 cm petri dishes and placed in a 5% CO^2 incubator at a constant temperature of 37° C. To ensure transfection efficiency, cells in the logarithmic phase (cell density of about 50%-70%) should be used.
One day before transfection, cells in logarithmic phase were digested with Trypsin-EDTA, the reaction was terminated by adding medium, and the cell suspension was made by blowing and mixing with a pipette.
The cell concentration was determined using Vi-cell and diluted to a suspension of 5*10^5 cells per milliliter. Once the cell suspension was prepared, it was gently mixed and 10 ml of liquid was added to a 10 cm petri dish. […] The cells were incubated in a 5% CO^2 incubator at 37° C. for 1 day.
Take two clean and sterile centrifuge tubes, added 750 μL of opti-MEM Medium without antibiotics and serum respectively, then added […] of plasmid (pGL3B-8×GTiiC-nLuc-CMV-fLuc) to one of the tubes and gently blown with a pipette for mixing; the other tube was added with Lipo6000 transfection reagent and gently blown with a pipette for mixing. After standing at room temperature for 5 minutes, the culture medium containing DNA was gently added to the culture medium containing Lipo6000 transfection reagent, mixed by gently inverting the centrifuge tube, and stood at room temperature for 5 minutes.
The above mixture was added evenly dropwise to a 10-cm petri dish and replaced with fresh complete medium after 6 h of incubation.
After 1 day of transfection, Trypsin EDTA was used to digest the cells, medium was added to terminate the reaction, and a cell suspension was made by blowing and mixing with a pipette.
Cell concentration was determined using Vi-cell, and diluted to a suspension of 20,000 cells per milliliter.
After the cell suspension was prepared, it was gently mixed and 100 μL was added to each well in a 96-well plate so that the density of cells to be measured was 2000 per well.
The inoculated cell culture plates were incubated in an incubator, and the compounds in concentration gradients were added after about 24 hours.
The 10 mM compound reservoir solution was diluted to 50 μM with culture medium, and 50 μM compound solution was added sequentially to the third column of the deep-well plate, and 216 μL of culture medium containing 0.5% DMSO to the fourth to eleventh columns.
Gradient dilution: 100 μL of solution was pipetted from the third column and added to the fourth column, after mixing; another 100 μL of solution was pipetted from the fourth column and added to the fifth column, and the operation was repeated until the eleventh column.
Using a multichannel pipette, 25 μL of compound solution was pipetted from the deep-well plate and added to the 96-well culture plate, and each compound was repeated four times on the 96-well plate. A concentration gradient with a maximum concentration of 10,000 nM, 1:3.16, was eventually formed on the 96-well plate.
The 96-well plate was incubated in a 5% CO^2 incubator at a constant temperature of 37° C. for 48 hours, then removed and equilibrated at room temperature for 10 minutes.
100 μL of detection reagent was added to each well and placed on a horizontal shaker at low speed for 10 minutes to fully lyse the cells. […]

[1] = tested on: Human pleural mesothelioma cells NCI-H226; experiment: Proliferation inhibition assay of human pleural mesothelioma cells NCI-H226 (CCK8); type: cell-based; conditions: 72 h, 3 days incubation
From the text: Experimental Example 1 Cell Anti-Proliferation Test
Proliferation Inhibition Assay of Human Pleural Mesothelioma Cells NCI-H226 by YAP-TEAD Inhibitor Compounds
Experimental materials and equipment: Human pleural mesothelioma cells NCI-H226 were purchased from Nanjing Cobioer Biosciences CO., LTD. RPMI-1640 medium (Bio-Channel), DMSO (dimethyl sulfoxide), CCK8 (WST-8) cell analysis kit (Beyotime), 0.25% EDTA-Tripsin (trypsin solution), 1×PBS (phosphate buffer, PH7.2), 96-well plate (Corning), fetal bovine serum (FBS), 10,000 U/mL penicillin-G/streptomycin, high-speed cryo-centrifuge (EPPENDORF 5810R), enzyme-linked immunoassay (Tecan Spark).
• A) Tumor cells were cultured in RPMI-1640 (containing 10% FBS and 100 U/mL penicillin-G/streptomycin) at 37° C., 5% CO^2 and saturated humidity until 80-90% density. • B) Removed the culture medium from 10 cm Petri dishes; • C) Rinsed the cells once with 10 ml 1×PBS; • D) Added 4 ml 0.25% EDTA-Tripsin into 37° C., 5% CO^2 incubator for trypsin digestion for 5 minutes, transferred to 15 ml centrifuge tube, centrifuged at 200 g for 5 minutes, discarded the supernatant to get cell precipitate; • E) Resuspend with 4 ml DMEM medium, count and adjust to 10,000 cells/ml. • F) Added cell suspension to 96-well plate with 100 μL per well volume and incubate overnight at 37° C., 5% CO^2 incubator.
• A) Preparation of gradient dilution solution of tested compounds: the test compounds were configured into 1 mM reservoir solution. Then 1.5 μl of the reservoir solution was dissolved in 1.5 ml of DMSO-free culture solution, and then a 3-fold serial gradient dilution was performed with 0.1% DMSO culture solution for a total of 9 concentrations, and the concentrations of the compounds after dilution were as follows: • 333.33 nM, 111.11 nM, 37.03 nM, 12.35 nM, 4.15 nM, 1.37 nM, 0.46 nM, 0.15 nM • B) After thorough mixing, 100 μL of culture compound solution was taken separately to replace the culture solution in the cell culture plate, with 4 replicate wells for each concentration; • C) The cells were transferred to the incubator and incubated for 3 days.
• A) Removed the cell culture plate and added 10 μl of CCK-8 (WST-8) solution per well in the biosafety cabinet. • B) Placed the cell culture plate back into the incubator and continued incubation for 3 hours. • C) Determined the absorbance value by selecting 450 nm on a TECAN enzyme-linked immunoassay detector.
The cell viability (% Cell Viability) was calculated using the following formula.
[formula] • A (dosing): absorbance of wells with cells, CCK8 solution and drug solution • A (blank): absorbance of wells with medium and CCK8 solution but no cells • A (0 dosing): absorbance of wells with cells, CCK8 solution and no drug solution • Cell viability: Cell proliferation viability or cytotoxicity viability IC50 values were obtained by curve fitting with GraphPad Prism 8 software.

[2] = Pharmacokinetic study of the drug, oral administration to rats (plasma, cerebrospinal fluid, brain tissue); type: in vivo; conditions: SD rat, 10 mg/kg, single; for Kp: brain tissue (post perfusion) and plasma, read-out: B/P value; for Kp uu: in vivo, read-out: Kpuu Value; for AUC(0-inf) / AUC(0-t) / Cmax / MRT last / Tmax: plasma
From the text: Experimental Example 3 Pharmacokinetic Study of the Drug
Oral Administration Solvent: 5% DMSO+10% Solutol HS15+85% Saline
Oral administration preparation process: weighed the appropriate amount of powder, added the appropriate volume of DMSO, vortex, then added the appropriate volume of Solutol solution, vortex, and added the appropriate amount of saline, vortex ultrasound into a homogeneous and clarified state of the preparation solution.
The animal room was equipped with an air-conditioning system and well ventilated, and the indoor temperature was maintained in the range of 20-26° C., and the humidity was maintained in the range of 40%-70%. The animal room was artificially illuminated with 12 hours of light and 12 hours of dark (except for the working light that needed to be turned on for experimental operation and cleaning), and the experimental animals were free to feed and drink.
Animals were purchased and fed normally for at least 3 days, and rats that were examined by a veterinarian and had qualified physical conditions were enrolled in this experiment; each rat was labeled with a tail mark. Animals in the oral administration group were fasted overnight the day before administration, and resumed feeding and drinking freely 4 hours after administration.
Before administration, checked the state of the administered preparation, ensured the homogeneity of the preparation by vortexing, stirring or oscillating, and calculated the theoretical volume of the administered drug for each SD rat in each group according to the following formula.
Mode of administration: Oral administration to rats, fasted overnight prior to administration.

Compound | IC50 (YAP-TEAD) [nM] | IC50 [1] [nM] | HL— [2] [h] | Kp [2] | Kp uu [2] | AUC(0-inf) [2] [ng·h/mL] | AUC(0-t) [2] [ng·h/mL] | Cmax [2] [ng/mL] | MRT last [2] [h] | Tmax [2] [h]
C=CC(=O)N1CCC(c2nccnc2Oc2ccc(C(F)(F)F)cc2)CC1 [Compound T58] | ≤ 100 | ≤ 100 | 2.67 | 2.01 | 0.269 | 7560 | 7540 | 1180 | 5.81 | 2
C=CC(=O)N1CCC(c2nccnc2Nc2ccc(C(F)(F)F)cc2)CC1 [Compound T16] | ≤ 100 | ≤ 100 | 2.07 | 1.41 | 0.518 | 17400 | 17300 | 2840 | 4.48 | 2.67
C=CC(=O)N1CCC(c2ccc(Cl)nc2Nc2ccc(C(F)(F)F)cc2)CC1 [Compound T27] | ≤ 100 | 100 to 1000 | 3.03 | – | – | 19600 | 19400 | 1880 | 6.89 | 3.33
C=CC(=O)N1CCC(c2cccnc2Oc2ccc(C(F)(F)F)cc2)CC1 [Compound T59] | ≤ 100 | ≤ 100 | 2.66 | 1.22 | 0.765 | 3920 | 3910 | 679 | 4.6 | 1.5
C=CC(=O)N1CCC(c2cc(Cl)cnc2Oc2ccc(C(F)(F)F)cc2)CC1 [Compound T40] | ≤ 100 | ≤ 100 | 4.40 | 1.88 | 0.286 | 18000 | 17500 | 1650 | 6.75 | 1.67
C=CC(=O)N1CCC(c2cc(-c3cnn(C)c3)cnc2Nc2ccc(C(F)(F)F)cc2)CC1 [Compound T61] | ≤ 100 | 1000 to 5000 | 2.95 | 0.56 | 0.038 | 13200 | 10800 | 1960 | 3.49 | 2.67
C=CC(=O)N1CCC(c2c(Nc3ccc(C(F)(F)F)cc3)ncc3ccccc23)CC1 [Compound T37] | 100 to 1000 | 100 to 1000 | 13.97 | – | – | 18000 | 12300 | 804 | 9.85 | 4.67
C=CC(=O)N1CCC(c2cc(-c3cc[nH]n3)cnc2Nc2ccc(C(F)(F)F)cc2)CC1 [Compound T92] | ≤ 100 | 100 to 1000 | 1.59 | – | – | 4830 | 4770 | 901 | 3.8 | 2.67
C=CC(=O)N1CCC(c2cccnc2Nc2ccc(C(F)(F)F)cc2)CC1 [Compound T1] | ≤ 100 | ≤ 100 | 1.93 | – | – | 5260 | 5250 | 919 | 4.28 | 1.33
C=CC(=O)N1CCC(c2cc(C)cnc2Nc2ccc(C(F)(F)F)cc2)CC1 [Compound T22] | ≤ 100 | ≤ 100 | 2.64 | – | – | 3500 | 3290 | 594 | 3.97 | 2
